Experimental data published in patent US20240299457A1, “METHODS FOR TREATING DISEASE ASSOCIATED WITH SENESCENCE” (Steadman Philippon Research Institute, priority 2019, published 2024).
Entries after “also recorded” stand apart in the source; their conditions may differ.

Legend:
[1] = system: low passage (<p4) ADSCs; assay: CellTiter 96 AQueous Cell Proliferation Assay (cell toxicity); type: cell-based, human
Experimental: Banked ADSCs isolated from person three, person four, person two, and person one were purchased and cultured with normal growth media (DMEM/F:12, 10% FBS, and 1% penicillin/streptomycin).
Fisetin was added to growth media and treated on cells for 24 hours. Following treatment, the media was changed to normal growth media for 24 hours before being used for cell toxicity, immunofluorescence, or flow cytometry.
The CellTiter 96® AQueous Cell Proliferation Assay was used to determine the toxicity of 50 μM, 25 μM, and 1 μM Fisetin on low passage (<p4) cells. Cells were seeded at 40,000 cells/well in a 12-well plate. After adhering overnight, the cells were treated with 50 μM, 25 μM, and 1 μM of Fisetin for 24 hours. After treatment, the media was changed back to normal growth media for another 24 hours. The cells were then treated with the CellTiter 96 AQueous Cell Proliferation Assay following the manufacturer's protocol. Values are relative to untreated, control cells.

[2] = system: senescent ADSCs (β-galactosidase, C12FDG); assay: C12FDG staining of senescence-associated β-galactosidase with flow cytometry in culture-expanded ADSCs; type: cell-based, human
Experimental: Cells were treated with 100 nM of bafilomycin A1 for 1 hour at 37° C. and 5% CO2. Next, 33 μM C12FDG was added and incubated for 2 hours. Thus, cells were stained with the fluorescent senescence-associated marker C12FDG, collected, and tested for senescence using flow cytometry after 50 μM Fisetin treatment. 3 replicates were used per treatment. The InCyte software was used, and fluorescent gating was determined using unstained control cells.
(§1) To determine Fisetin's senolytic ability in vitro, based on the data from the preceding example, the 50 μM Fisetin concentration was used to treat YF and OF cells. Senescent cells were quantified by immunofluorescence using ? -H2AX and H3K9. Similarly, YM and OM cells were quantified using C12FDG for flow cytometry. C12FDG reacts with beta-galactosidase, a biomarker for senescence, to produce a fluorogenic substrate to be detected and quantified by flow cytometry.
Cells were seeded in triplicate for each group using previously described culture methods and seeding densities. After adhering overnight, the media was changed. […] After culturing in normal growth media for another 24 hours, the media was collected for SASP quantification or the cells were processed for C12FDG or SAHF staining, as described in the preceding example.

[3] = system: senescence-associated heterochromatin foci (SAHF) in ADSCs; assay: Immunofluorescence of senescence-associated heterochromatin foci (H3K9, γ-H2AX) in ADSCs; type: cell-based, human; conditions: 50 μM Fisetin
Experimental: Specifically, the cells were maintained in T-75 culture flasks using normal growth media (DMEM:F-12 with 10% FBS and 1% penicillin/streptomycin). At 70-90% confluency, the cells were passaged and reseeded in the flasks at a 1:4 dilution. At their respective testing passage number, cells were plated into chamber slides for SAHF staining at a density of 5,000 cells/cm^2. Cells were seeded in triplicate for each group and incubated to adhere overnight. The following day, cells were fixed with cold 4% paraformaldehyde and stained with the H2AX antibody using a 1:150 dilution and the H3K9 antibody using a 1:250 dilution. DAPI was also used to stain the nuclei. Five images per well and three wells per group were imaged using the Nikon Eclipse Ni-U microscope. Cells positive for the H2AX and H3K9 antibodies were quantified using the ImageJ software.
Each cell type was given 3 replicate wells, and each well was imaged 6 times, for a total of 18 images per group. Using an Image J program, the number of cells positive for each marker was quantified.
as §1, with “C12FDG reacts with beta-galactosidase, a biomarker for senescence, to produce a fluorogenic substrate to be detected and quantified by flow cytometry.” left out

[4] = system: SASP factors IL-6, IL-8, MCP-1; assay: SASP factor quantification in ADSC culture media (Milliplex); type: cell-based, human; conditions: after Fisetin treatment, media 24 hours
Experimental: For SASP detection, the media were collected after incubating with the cells for 24 hours, centrifuged at 2,000×g for ten minutes, transferred to new microcentrifuge tubes, and stored at −80° C. until testing. The Human Adipocyte Milliplex kit using the EMD Millipore Milliplex instrument was used to quantify the SASPs.
Cells were seeded in triplicate for each group using previously described culture methods and seeding densities. After adhering overnight, the media was changed. For the untreated group normal ADSC growth media was used (DMEM:F-12 with 10% FBS and 1% penicillin/streptomycin), and for the treated group 50 μM Fisetin was added. Cells were treated for 24-hours, after which the media was changed back to normal growth media for all groups. After culturing in normal growth media for another 24 hours, the media was collected for SASP quantification or the cells were processed for C12FDG or SAHF staining, as described in the preceding example.
Within the R1 region of FIGS. 4B-4D, cells positive for C12FDG are noted by their respective peaks. […] In all groups, a decrease was indicated. […] 3 replicates were used for each treatment. (FIG. 6).

[5] = system: senescent CD3+ T-cells; assay: Senescent peripheral blood CD3+ T-cells before and after oral Fisetin, C12FDG flow cytometry (person); type: in vivo, human; conditions: CD3+ cells after Fisetin treatment, 100 mg per day for 45 days
Experimental: Whole blood was collected from a subject into 50 ml Syringe containing ACD-A and set on a rocker. SepMate tubes (Stem Cell Technologies) were prepared with 15 ml Lymphoprep in a sterile environment. 10 ml whole blood were aliquoted into 50 ml conical tubes. 500 μl (50 μl/ml) RosetteSep (Stem Cell Technologies) was added to 10 mL sample of blood. For other blood samples, total PBMCs were collected as described below without T-cell enrichment for comparison. The mixture was incubated 10 min at room temperature (RT). An equal volume dilution medium (DM-sterile PBS and 2% FBS) was added to the sample and mixed gently. The diluted sample was slowly added to the SepMate tube containing Lymphoprep density gradient medium. The mixture was centrifuged at 1200×g for 10 minutes, brake on. The enriched cells were collected by pouring supernatant into a new tube. […]
Senescent cells were treated with Fisetin and then further characterized using flow cytometry (as described in Example 4, above). Peripheral Blood CD3+ T-cells from a person before & after Fisetin treatment (100 mg per day for 45 days) were evaluated for senescence and for senescent cell populations. Before treatment, the subject measured about 29% senescent cells, and after treatment, the subject measured about 4% senescent cells (data not shown).

[6] = system: C12FDG+ T-Cells; assay: Bright and dim C12FDG+ T-cells in five patients treated with Fisetin; type: in vivo, human
Experimental: A certified phlebotomist used a 19-gauge butterfly needle to perform a standard venipuncture from the antecubital (AC) area, forearm or hand vein. Approximately 35 mL of blood was drawn into one 30 cc syringe (with ACD-A) and one 5 cc (without ACD-A) syringe. […] For total PBMCs and enriched T-Cells, SepMate™ tubes (Stem Cell Technologies) were used following manufactures protocol with Lymphoprep™ (Stem Cell Technologies) gradient centrifugation. Specifically, in separate tubes, CD3+ T-Cells were enriched using the RosetteSep™ commercial kit following manufactures instructions (Stem Cell Technologies #15021). A portion of cells (enriched T-cells and total PBMCs) were stained with 30 μM C12FDG in general culture media supplemented with 10% FBS and analyzed with flow cytometry (Guava EasyCyte, Luminex). To assess the percent, number, and concentration (cell/ml) of senescent CD3+ T-cells and PBMCs, settings were adjusted first using an unstained control (i.e., cells not treated with C12FDG). First, thresholds were set for FSC and SSC to catch cellular events. Next the green channel gain controls were set so that the background events fall between the 1st and second decade. […] Samples were ran in triplicate with water-only runs every 5 wells. Five patients with an age range from 56-77 years were treated with Fisetin at 100 mg/day for 30-45 days.

[7] = system: Zmpste24−/− mice; assay: Micro-CT analysis of bone in progeroid Z24−/− mice given senolytic drugs; type: in vivo, mouse
Experimental: (§2) Adult progeroid Z24−/− mice were administered senolytic drugs via oral gavage (150 μl volume) starting at 2.5 to 3.0 months of age. D/Q (5 mg/kg: 50 mg/kg in 10% PEG400/5.0% DMSO) was given as a single dose at 2.5 months or multi-dose at 2.5, 3.0, 3.5, 4.0, 4.5, and 5.0 months. Both single and multi-dose DQ mice were sacrificed at 5 months. FIS (100 mg/kg in 90% PEG400/10.0% ethanol) treated mice were given a total of 4 weekly doses of drug starting at 3.0 months of age, then sacrificed at 4.0 months of age. For 17-DMAG treatments (10 mg/kg, 1% DMSO-PBS), mice were treated 3 times per week starting at 2 months of age then sacrificed at 4 months of age.
For Fisetin treatments, mice were imaged using the explore Locus Utra Pre-Clinical CT Scanner (GE Healthcare, London, ON) through the pre-Clinical CT Core Facility with the following acquisition settings: 140 kVp, 22 mA with 16 s rotation/exposure. Non-cardiac gated CT images were acquired at all-time points. Simple back projections were obtained from the […] image reconstruction and exported as DICOM images. Image analysis was performed using the OsiriX software. Qualitative analysis of the bones was performed in 2D and 3D reconstructions using OsiriX. MicroView imaging software was also used for the quantitative analysis of the bone mineral density.
(§3) Z24−/−mice were treated with Fisetin weekly for 4 weeks (100 mg/kg) starting at 3 months of age then sacrificed at 4 months of age. 4 months was chosen as a sacrifice time (versus 5 months) given the more advanced pathology that occurred at 5 months, a time when therapies might have negligible effects like seen in D+Q treated animals.

[8] = system: Zmpste24−/− mice; assay: Transcript levels of senescence marker and SASP factors in tissues of Z24−/− mice; type: in vivo, mouse; conditions: 100 mg/kg weekly
Experimental: as §2, §3

[9] = system: mice OA models; conditions: cited from earlier work
[10] = Losartan administration; cited from earlier work
[11] = treated versus untreated Z24−/− mice

In the case of `O=c1c(O)c(-c2ccc(O)c(O)c2)oc2cc(O)ccc12` [Fisetin, 2-(3,4-dihydroxyphenyl)-3,7-dihydroxychromen-4-one], the “toxicity to the health of low passage ADSCs” value ([1]; 50 μM) is reported as “not toxic”, the “percentage of viable cells among treatments” value ([1]; 50 μM, 25 μM, 1 μM, YF, OF, YM, OM, relative to untreated control cells) is reported as “no significant difference” and the “toxicity to ADSCs” value ([1]; 1-50 μM, 24 hours treatment) is reported as “non-toxic”. For the same compound, the “ADSC viability and proliferation” value ([1]; Fisetin exposure) was “not hindered”, the “% cells positive for C12FDG (senescence)” value ([2]; 50 μM Fisetin, 24 hours, passages 6, 8, 10) was “significantly reduced; also recorded: reduced at every passage” and the “count of the peak representing senescent cells (histogram)” value ([2]; cells treated with 50 μM Fisetin) was “about 20”. For the same compound, the “number of cells positive for H3K9” value ([3]; OF and YF cells, passages 4 and 18) was “significantly reduced in all groups”, the γ-H2AX positive cells ([3]; low passage OF, low passage YF, high passage YF cells) was “reduced” and the IL-6 concentration [4] was “decrease”. The IL-8 concentration [4] was “decrease”, the MCP-1 concentration [4] was “decrease” and the Senescent cell concentration [5] was 7397 +/− 3191 cells/mL. The Total senescent cells [5] was 191 +/− 73, the “reduction in the percent of C12FDG+ cells (dim, early stage)” value ([6]; 100 mg/day for 30-45 days) was 1-2 fold and the “bright cells, mean” value ([6]; P19, treated/post-treated) was 1.15%. The “dim cells, mean” value ([6]; P19, treated/post-treated) was 26.70%, the “bright cells, mean” value ([6]; P50, treated/post-treated) was 0.60% and the “dim cells, mean” value ([6]; P50, treated/post-treated) was 27.55%. The “reduction in bright C12FDG+ T-cells” value ([6]; patients with high baseline bright cells, 100 mg/day for 30-45 days) was 10-20 fold, the bone density loss ([7]; 100 mg/kg weekly for 4 weeks from 3 months of age, micro-CT) was “significantly attenuate” and the “protective effects in bone” value ([7]; Z24−/− mice, oral gavage) was “effective”. The “Hounsfield unit (HU) intensity” value [7, 11] was “Significant higher scores”, the “bone mineral density (BMD)” value [7, 11] was “Significant higher scores” and the “specific bone surface (BS/BV)” value [7, 11] was “Significant higher scores”. The “transcript levels of IL-6” value [8] was “reduced”, the “transcript levels of TGF-β” value [8] was “reduced” and the “transcript levels of p16INK4a” value [8] was “reduced”. For the same compound, the cartilage destruction [9] was “decreased”, the “subchondral bone plate thickness” value [9] was “decreased” and the synovitis [9] was “relieved”.

In the case of `CCCCc1nc(Cl)c(CO)n1Cc1ccc(-c2ccccc2-c2nn[nH]n2)cc1` [Losartan], the “microfracture for cartilage repair” value [10] is listed as “enhance”.
